# Experimental data from patent publication US20040126421A1, “Liposomal system and method of using same” (priority 2002, published 2004).
# System: CD8+ T cells recognizing the ova peptide (SIINFEKL)
# Test: IFN-g ELISPOT of lymph node CD8+ T cells after vaccination
# Type: in vivo, C57BL/6 mice
# Method: In order to test the potency of the Ubiquisome vaccine, the liposomes of example 1 were used as a vaccine. For vaccination, mice received a single administration of […] of liposomes containing 2.5 mg POPE and approximately […] peptide antigen. The vaccine was injected bilaterally in mouse tibealis anterior muscle ([…] per muscle).
# For ELISPOT analysis, mice were sacrificed 5 days following vaccination and inguinal and popliteal lymph nodes were harvested. CD8+ T cells from lymph nodes were isolated using the MACS magnetic cell separation technique. 1×10^5 CD8+ T cells were plated per well in 96 well IP plates. Ova (SIINFEKL, Seq ID No. 3) or irrelevant peptide-pulsed EL4 lymphoma cells were irradiated and plated over CD8+ T cells at density of 10×10^4 cells/well. Following 20 h incubation and assay development, IFN-g secreting cells were visualized as brown spots on the IP membrane.
substance,measurement,value
monophosphoryl Lipid A [MPL],CD8+ T cell response with increasing amounts of MPL in the bilayer,proportionally stronger CD8+ T cell responses
